Assay results from patent publication US20050032873A1, “3-Amino chroman and 2-amino tetralin derivatives” (Wyeth, priority 2003, published 2005).
Read-outs that look alike come from different tables or passages of the source.

Tests used:
serotonin transporter = target: T1, serotonin transporter (Rattus norvegicus, UniProt P31652); assay: 5-HT transporter affinity: displacement of 3H-paroxetine from male rat cortical membranes; format: binding; conditions: displacement of 3H-paroxetine, male rat cortical membranes
T1 construct: displace ^3H-paroxetine from male rat cortical membranes; from tissue; host or cells: male rat cortical membranes
T1 sequence (P31652 whole entry): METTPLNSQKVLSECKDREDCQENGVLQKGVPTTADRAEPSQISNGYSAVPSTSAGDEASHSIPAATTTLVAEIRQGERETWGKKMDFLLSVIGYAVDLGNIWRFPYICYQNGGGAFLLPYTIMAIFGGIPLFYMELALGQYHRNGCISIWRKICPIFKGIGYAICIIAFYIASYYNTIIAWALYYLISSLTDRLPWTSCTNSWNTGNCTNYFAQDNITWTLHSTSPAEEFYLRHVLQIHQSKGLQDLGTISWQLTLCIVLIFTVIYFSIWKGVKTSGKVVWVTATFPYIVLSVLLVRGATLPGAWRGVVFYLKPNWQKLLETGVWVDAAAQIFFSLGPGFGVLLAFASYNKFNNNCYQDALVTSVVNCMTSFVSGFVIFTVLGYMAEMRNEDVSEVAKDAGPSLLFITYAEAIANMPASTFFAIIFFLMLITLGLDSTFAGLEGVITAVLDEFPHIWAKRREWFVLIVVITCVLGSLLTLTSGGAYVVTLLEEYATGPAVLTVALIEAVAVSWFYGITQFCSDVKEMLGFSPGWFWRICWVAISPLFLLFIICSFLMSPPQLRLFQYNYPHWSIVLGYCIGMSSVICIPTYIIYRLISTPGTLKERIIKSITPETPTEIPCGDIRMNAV

[1] = target: T2, cloned human 5-HT1A receptors (Homo sapiens, UniProt P08908); assay: 35S-GTPγS binding assay, 5-HT1A function; format: biochemical; conditions: for EC50: agonist potency; for IC50: antagonist potency, reversal of 8-OH-DPAT
T2 construct: expressed in transfected cells
T2 sequence (P08908 1-422): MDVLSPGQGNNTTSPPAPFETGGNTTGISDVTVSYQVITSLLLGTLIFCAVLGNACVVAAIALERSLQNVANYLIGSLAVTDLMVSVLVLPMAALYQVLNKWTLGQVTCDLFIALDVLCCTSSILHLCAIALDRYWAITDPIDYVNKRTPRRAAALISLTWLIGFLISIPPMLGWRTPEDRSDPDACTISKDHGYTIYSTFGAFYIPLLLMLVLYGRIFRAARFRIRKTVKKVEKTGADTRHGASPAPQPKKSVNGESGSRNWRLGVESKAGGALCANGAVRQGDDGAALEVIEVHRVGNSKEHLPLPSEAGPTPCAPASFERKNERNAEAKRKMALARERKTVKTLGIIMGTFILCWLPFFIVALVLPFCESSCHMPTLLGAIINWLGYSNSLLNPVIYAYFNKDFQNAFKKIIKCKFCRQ

5-HT1A receptor [2] = target: T3, 5-HT1A receptor (Homo sapiens, UniProt P08908); assay: cAMP accumulation assay, 5-HT1A function; format: cell-based; conditions: for EC50: cells marked EC50 (agonist); for IC50: cells marked IC50 (antagonist)
T3 sequence (P08908 1-422): T2 sequence (P08908 1-422)

5-HT1A receptor [3] = target: T3, 5-HT1A receptor; assay: 5-HT1A receptor affinity: displacement of [3H] 8-OH-DPAT; format: binding; design: expressed in transfected cells; conditions: displacement of [3H] 8-OH-DPAT, CHO cells stably transfected with human 5-HT1A receptors
[4] = read-out: 5-HT Transporter Affinity Ki
[5] = maximum stimulatory effect, in brackets after EC50, read-out: 5-HT1A Function GTPγS (Emax)
[6] = in brackets after EC50 or IC50, read-out: 5-HT1A Function cAMP (Emax)
[7] = read-out: 5-HT1A Receptor Affinity Ki
[8] = 5-HT Transporter Affinity Ki (nM)
[9] = 5-HT1A Receptor Affinity Ki (nM)
[10] = read-out: 5-HT1A Function GTPγS IC50
[11] = maximum inhibitory effect, in brackets after IC50, read-out: 5-HT1A Function GTPγS (Imax)
[12] = read-out: 5-HT1A Function cAMP IC50

EC50 [1]	Emax [1, 5]	EC50 (5-HT1A receptor [2])	SMILES	Ki (serotonin transporter; [4])	Emax (5-HT1A receptor [2]; [6])	Ki (5-HT1A receptor [3]; [7])	Ki (serotonin transporter; [8])	Ki (5-HT1A receptor [3]; [9])	IC50 [1, 10]	Emax [1, 11]	IC50 (5-HT1A receptor [2]; [12])	5-HT1A Function GTPγS (Imax) ([1]; maximum inhibitory effect, in brackets after IC50)	5-HT1A Function cAMP (Emax) (5-HT1A receptor [2]; in brackets after EC50 or IC50)	Emax (5-HT1A receptor [2]; read-out: 5-HT1A Function cAMP (Emax), in brackets after EC50 or IC50)	IC50 ([1]; 5-HT1A Function GTPγS IC50 (nM))	IC50 (5-HT1A receptor [2]; 5-HT1A Function cAMP IC50 (nM))
0.0056 µM	80.5%	0.00761 µM	CCCN(CCCc1c[nH]c2ccc(F)cc12)[C@H]1CCc2cccc(OC)c2C1 [Compound 47a, (−)-N-[3-(5-fluoro-1H-indol-3-yl)propyl]-8-methoxy-N-propyl-1,2,3,4-tetrahydronaphthalen-2-amine]	0.83 nM	99%	1.55 nM	–	–	–	–	–	–	–	–	–	–
0.0194 µM	87%	0.00155 µM	CCCN(CCCc1c[nH]c2ccc(F)cc12)[C@@H]1CCc2cccc(OC)c2C1 [Compound 47b, (2R)-N-[3-(5-fluoro-1H-indol-3-yl)propyl]-8-methoxy-N-propyl-1,2,3,4-tetrahydronaphthalen-2-amine]	1.1 nM	100%	0.34 nM	–	–	–	–	–	–	–	–	–	–
0.004 µM	90%	0.00252 µM	CCCN(CCCc1c[nH]c2ccccc12)C1CCc2cccc(OC)c2C1 (centres unmarked) [Compound 50, N-[3-(1H-indol-3-yl)propyl]-8-methoxy-N-propyl-1,2,3,4-tetrahydronaphthalen-2-amine]	14 nM	98%	2.13 nM	–	–	–	–	–	–	–	–	–	–
0.0153 µM	95%	0.013 µM	CCCN(CCCc1c[nH]c2ccc(F)cc12)C1CCc2c(F)ccc(OC)c2C1 (centres unmarked) [Compound 51, N-[3-(5-fluoro-1H-indol-3-yl)propyl]-N-(5-fluoro-8-methoxy-1,2,3,4-tetrahydronaphthalen-2-yl)-N-propylamine]	2.42 nM	83%	11.4 nM	–	–	–	–	–	–	–	–	–	–
–	–	–	NC(=O)c1ccc(F)c2c1CC(N(CCCc1c[nH]c3cc(F)ccc13)CC1CC1)CO2 (centres unmarked) [Compound 52a, 3-{(cyclopropylmethyl)[3-(6-fluoro-1H-indol-3-yl)propyl]amino}-8-fluorochromane-5-carboxamide]	163 nM	0%	2.37 nM	–	–	983 nM	90%	118 nM	–	–	–	–	–
–	–	–	NC(=O)c1ccc(F)c2c1CC(N(CCCc1c[nH]c3cc(F)ccc13)C1CCC1)CO2 (centres unmarked) [Compound 53, 3-{cyclobutyl[3-(6-fluoro-1H-indol-3-yl)propyl]amino}-8-fluorochromane-5-carboxamide]	237 nM	0%	5.02 nM	–	–	512 nM	100%	486 nM	–	–	–	–	–
–	–	–	COC(=O)c1ccc(F)c2c1CC(N(CCCc1c[nH]c3ccc(F)cc13)C1CCC1)CO2 (centres unmarked) [Compound 55, Methyl 3-{cyclobutyl[3-(5-fluoro-1H-indol-3-yl)propyl]amino}-8-fluorochromane-5-carboxylate]	161 nM	–	73.8 nM	–	–	–	–	–	62%	0%	–	–	–
0.247 µM	89%	0.0871 µM	COC(=O)c1ccc(F)c2c1CC(NCCCCc1c[nH]c3ccc(F)cc13)CO2 (centres unmarked) [Compound 57, Methyl 8-fluoro-3-{[4-(5-fluoro-1H-indol-3-yl)butyl]amino}chromane-5-carboxylate]	4.69 nM	91.5%	14.1 nM	–	–	–	–	–	–	–	–	–	–
1.75 µM	96%	0.337 µM	COC(=O)c1ccc(F)c2c1C[C@H](NCCCCc1c[nH]c3ccc(F)cc13)CO2 [Compound 57a, Methyl (3S)-8-fluoro-3-{[4-(5-fluoro-1H-indol-3-yl)butyl]amino}chromane-5-carboxylate]	4.21 nM	81%	113 nM	–	–	–	–	–	–	–	–	–	–
0.641 µM	100%	0.18 µM	COC(=O)c1ccc(F)c2c1C[C@@H](NCCCCc1c[nH]c3ccc(F)cc13)CO2 [Compound 57b, methyl (3R)-8-fluoro-3-{[4-(5-fluoro-1H-indol-3-yl)butyl]amino}chromane-5-carboxylate]	12.2 nM	93%	19.4 nM	–	–	–	–	–	–	–	–	–	–
–	–	–	CNC(=O)c1ccc(F)c2c1CC(N(CCCc1c[nH]c3ccc(F)cc13)C1CCC1)CO2 (centres unmarked) [Compound 59, 3-{cyclobutyl[3-(5-fluoro-1H-indol-3-yl)propyl]amino}-8-fluoro-N-methylchromane-5-carboxamide]	5.05 nM	0%	5.35 nM	–	–	812 nM	100%	166 nM	–	–	–	–	–
–	–	–	CCNC(=O)c1ccc(F)c2c1CC(N(CCCc1c[nH]c3ccc(F)cc13)C1CCC1)CO2 (centres unmarked) [Compound 60, 3-{cyclobutyl[3-(5-fluoro-1H-indol-3-yl)propyl]amino}-N-ethyl-8-fluorochromane-5-carboxamide]	4.86 nM	0%	17.8 nM	–	–	1400 nM	100%	116 nM	–	–	–	–	–
–	–	–	CCCNC(=O)c1ccc(F)c2c1CC(N(CCCc1c[nH]c3ccc(F)cc13)C1CCC1)CO2 (centres unmarked) [Compound 61, 3-{cyclobutyl[3-(5-fluoro-1H-indol-3-yl)propyl]amino}-8-fluoro-N-propylchromane-5-carboxamide]	2.4 nM	–	195 nM	–	–	800 nM	–	593 nM	–	–	0%	–	–
–	–	–	CC(C)NC(=O)c1ccc(F)c2c1CC(N(CCCc1c[nH]c3ccc(F)cc13)C1CCC1)CO2 (centres unmarked) [Compound 63, 3-{cyclobutyl[3-(5-fluoro-1H-indol-3-yl)propyl]amino}-8-fluoro-N-isopropylchromane-5-carboxamide]	3.56 nM	0%	46.1 nM	–	–	2170 nM	76%	449 nM	–	–	–	–	–
–	–	–	O=C(NC1CC1)c1ccc(F)c2c1CC(N(CCCc1c[nH]c3ccc(F)cc13)C1CCC1)CO2 (centres unmarked) [Compound 64, 3-{cyclobutyl[3-(5-fluoro-1H-indol-3-yl)propyl]amino}-N-cyclopropyl-8-fluorochromane-5-carboxamide]	4.89 nM	0%	19.2 nM	–	–	395 nM	90%	288 nM	–	–	–	–	–
–	–	–	O=C(NC1CCC1)c1ccc(F)c2c1CC(N(CCCc1c[nH]c3ccc(F)cc13)C1CCC1)CO2 (centres unmarked) [Compound 65, N-cyclobutyl-3-{cyclobutyl[3-(5-fluoro-1H-indol-3-yl)propyl]amino}-8-fluorochromane-5-carboxamide]	3.98 nM	0%	214 nM	–	–	91.5 nM	48%	358 nM	–	–	–	–	–
–	–	–	CCCCN(CCCc1c[nH]c2ccc(F)cc12)C1COc2c(F)ccc(C(N)=O)c2C1 (centres unmarked) [Compound 72, 3-{butyl[3-(5-fluoro-1H-indol-3-yl)propyl]amino}-8-fluorochromane-5-carboxamide]	52.5 nM	0%	38.8 nM	–	–	3250 nM	43%	–	–	–	–	–	–
–	–	–	CN(C)C(=O)c1ccc(F)c2c1CC(N(CCCc1c[nH]c3ccc(F)cc13)C1CCC1)CO2 (centres unmarked) [Compound 73, 3-{cyclobutyl[3-(5-fluoro-1H-indol-3-yl)propyl]amino}-8-fluoro-N,N-dimethylchromane-5-carboxamide]	28.8 nM	0%	372 nM	–	–	5730 nM	40%	155 nM	–	–	–	–	–
–	–	–	CCN(CCc1c[nH]c2ccc(F)cc12)C1COc2c(F)ccc(C(N)=O)c2C1 (centres unmarked) [Compound 76, 3-{ethyl[2-(5-fluoro-1H-indol-3-yl)ethyl]amino}-8-fluorochromane-5-carboxamide]	–	0%	–	52 nM	31.3 nM	–	68%	–	–	–	–	470 nM	68.2 nM

SMILES	EC50 [1]	Emax [1, 5]	EC50 (5-HT1A receptor [2])	Ki (serotonin transporter; [4])	Emax (5-HT1A receptor [2]; [6])	Ki (5-HT1A receptor [3]; [7])	Ki (serotonin transporter; [8])	Ki (5-HT1A receptor [3]; [9])	IC50 [1, 10]	Emax [1, 11]	IC50 (5-HT1A receptor [2]; [12])	5-HT1A Function GTPγS (Imax) ([1]; maximum inhibitory effect, in brackets after IC50)	5-HT1A Function cAMP (Emax) (5-HT1A receptor [2]; in brackets after EC50 or IC50)	Emax (5-HT1A receptor [2]; read-out: 5-HT1A Function cAMP (Emax), in brackets after EC50 or IC50)	IC50 ([1]; 5-HT1A Function GTPγS IC50 (nM))	IC50 (5-HT1A receptor [2]; 5-HT1A Function cAMP IC50 (nM))
CCCN(CCc1c[nH]c2ccc(F)cc12)C1CCc2cccc(OC)c2C1 (centres unmarked) [Compound 48, N-[2-(5-fluoro-1H-indol-3-yl)ethyl]-N-(8-methoxy-1,2,3,4-tetrahydronaphthalen-2-yl)-N-propylamine]	0.024 µM	93%	0.035 µM	6.5 nM	89%	5.98 nM	–	–	–	–	–	–	–	–	–	–
CCN(CCc1c[nH]c2ccc(F)cc12)C1CCc2cccc(OC)c2C1 (centres unmarked) [Compound 49, N-ethyl-N-[2-(5-fluoro-1H-indol-3-yl)ethyl]-N-(8-methoxy-1,2,3,4-tetrahydronaphthalen-2-yl)amine]	0.015 µM	88%	0.0355 µM	–	93%	–	6.5 nM	7.62 nM	–	–	–	–	–	–	–	–
